Measured values: PMC5635289, “Differential Effects of Angelicin Analogues on NF-κB Activity and IL-8 Gene Expression in Cystic Fibrosis IB3-1 Cells” (Mediators of Inflammation, 2017)

Legend:
IB3-1 cells = experiment: Cell proliferation assay on IB3-1 cells; assay type: cell-based; conditions: Homo sapiens, cell number/ml after 48 h of treatment
Description: Monolayers of 60% confluent IB3-1 cells were seeded in 24- or 12-well plates in LHC-8 medium in the presence of 5% FBS. After 24 h, TMA derivatives were added at serial dilutions and incubated for further 2-3 days. The effects of compounds (TMA derivatives) on the cell proliferation were analyzed as elsewhere described. A first analysis was performed with serial dilutions to obtain 50 μM, 200 μM, and 800 μM solutions. In order to determine IC50 values, the following concentrations were used 12.5, 25, 50, 100, 200, and 800 μM. In order to prepare the cells for counting, they were washed with PBS 1X and detached with trypsin/EDTA. Cells were suspended in physiological solution and counted with a Z2 Coulter Counter (Coulter Electronics, Hialeah, FL, USA). The cell number/ml was determined as IC50 after 2 days of culture, when untreated cells are in log phase of cell growth.
In order to obtain preliminary information on the biological properties of TMA derivatives, their effects on cell growth were examined on IB3-1 cell line, excellent biological model to study new potential anti-inflammatory molecules. The use of this cell line to study the expression of proinflammatory molecules under a variety of stimuli is well established. Monolayers of 60% confluent IB3-1 cells were seeded in 12-well plate in LHC-8 medium with 5% FBS. After 24 h, compounds were added at different concentrations and the cell number/ml was determined after further 48 h of culture.

NF-κB p50 = target: T1, NF-κB p50 (Homo sapiens, UniProt P19838); experiment: EMSA, inhibition of NF-κB/DNA interactions; assay type: binding; conditions: NF-κB p50 and 32P-labeled NF-κB oligonucleotide, MIC = minimal inhibitory concentration, 12.5 μM was the lowest concentration used
T1 construct: This assay was performed using purified NF-κB p50; purchased Promega
T1 sequence (P19838 1-433 limits assumed): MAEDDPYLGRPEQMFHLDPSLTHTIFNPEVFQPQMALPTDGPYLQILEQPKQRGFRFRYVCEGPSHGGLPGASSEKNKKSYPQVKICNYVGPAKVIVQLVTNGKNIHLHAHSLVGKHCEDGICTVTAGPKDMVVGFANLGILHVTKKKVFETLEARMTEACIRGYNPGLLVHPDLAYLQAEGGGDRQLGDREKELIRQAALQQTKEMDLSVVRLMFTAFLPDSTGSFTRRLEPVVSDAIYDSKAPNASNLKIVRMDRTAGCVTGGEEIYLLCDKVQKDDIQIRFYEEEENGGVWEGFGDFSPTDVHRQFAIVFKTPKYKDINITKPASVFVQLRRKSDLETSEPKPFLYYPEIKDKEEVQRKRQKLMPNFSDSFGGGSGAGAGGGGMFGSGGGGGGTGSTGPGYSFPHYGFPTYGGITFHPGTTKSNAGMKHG
Description: Electrophoretic mobility shift assays were performed using double-stranded ^32P-labeled oligonucleotides as target DNA. Binding reactions were set up as previously described in binding buffer (10% glycerol, 0.05% NP-40, 10 mM Tris-HCl pH 7.5, 50 mM NaCl, 0.5 mM DTT, and 10 mM MgCl2), in the presence of 0.1 μl/20 μl of NF-κB p50 (50 gsu) (Promega, Madison, WI, USA) and 0.25 ng of labeled oligonucleotide, in a total volume of 20 μl. After 30 min binding at room temperature, samples were electrophoresed at constant voltage (200 V for 30 min) through a low ionic strength (0.25 TBE buffer) (1 TBE/40.089 M Tris-borate, 0.002 M EDTA) on 6% polyacrylamide gels until the tracking dye (bromophenol blue) reached the bottom of a 16 cm slab. Gels were dried and exposed for autoradiography with intensifying screens at […]. In these experiments, DNA/protein complexes migrate through the gel with slower efficiency. In studies on the inhibitors of protein/DNA interactions, addition of the reagents was as follows: (i) nuclear factors, (ii) active principles, (iii) binding buffer, and (iv) labeled oligonucleotides mimicking the binding sites for TF to be modulated. The nucleotide sequence of double-stranded target DNA utilized in these experiments was 5′-CGC TGG GGA CTT TCC ACG G-3′ (sense strand, NF-κB). The synthetic oligonucleotides utilized in this study were purchased from Sigma Genosys (Sigma Genosys, Cambs, UK). To calculate the effective concentrations, three different autoradiograms obtained from different time exposures were scanned and compared to control EMSA performed without addition of angelicin analogues (two independent experiments were performed).
The effects of TMA derivatives on NF-κB- (nuclear factor-kappaB-) mediated induction of proinflammatory genes was verified first in vitro by electrophoretic mobility shift assay (EMSA) with the aim to verify and quantify the possible inhibition of NF-κB/DNA interactions. This assay was performed using purified NF-κB p50 and ^32P-labeled target NF-κB double-stranded oligonucleotide mimicking the NF-κB consensus sequence present within the IL-8 gene promoter.

IL-8 mRNA = experiment: RT-qPCR quantification of IL-8 mRNA in TNF-α-induced IB3-1 cells; assay type: cell-based, human; conditions: for inhibition at 1 µM / inhibition at 10 µM: Homo sapiens, IB3-1, 24 h, TNF-α-induced IB3-1 cells, RT-qPCR, na = not active at the used concentrations; for inhibition at 1 µM: 1 μM compound; for inhibition at 10 µM: 10 μM compound; for Inhibition of IL-8 expression (range given): IB3-1 cells, low concentrations (1–10 μM), concentration not specified per value
Description: Monolayers of 60% confluent IB3-1 cells were seeded in 6- or 12-well plates in LHC-8 medium in the presence of 5% FBS. After 24 h, pure derivatives were added, 5 h before stimulation with TNF-α 80 ng/ml (ORF Genetics, Kopavogur, Iceland), and incubated for a further 24 h. Total RNA was extracted using TRIzol Reagent (Sigma-Aldrich, St. Louis, MO) following the manufacturer's instructions. Reverse transcription (RT) was performed using Reverse Transcription System kit (Promega, Madison, WI): 1 μg of total RNA was reverse transcribed in the presence of 5 mM MgCl2, 1X reverse transcription buffer (10 mM Tris-HCl, 50 mM KCl, and 0.1% Triton X-100), 1 mM each dNTPs, 20 U recombinant Rnasin Ribonuclease Inhibitor, 15 U AMV Reverse Transcriptase, and 0.5 μg oligo(dT)15 primers in a total volume of 20 μl for 10 min at 70°C and 60 min at 42°C. The resulting cDNA was quantified by relative quantitative real-time PCR (real-time qPCR). For real-time qPCR, 1 μl of cDNA was used for each SYBR Green reaction to quantify the relative expression of IL-8. Each 25 μl of total reaction volume contained 1 μl of cDNA, 10 pmol of primers, 1 iQTM SYBR Green Supermix (Bio-Rad Laboratories Inc., Hercules, CA). Real-time PCRs were performed for a total of 40 cycles (denaturation, 95°C for 10 s; annealing, 68°C for 30 s for IL-8, 65°C for 30 s for IL-6; elongation, 72°C for 60 s) using an iCycler IQ5 (Bio-Rad Laboratories Inc., Hercules, CA). Primer sequences were as follows: IL-8 forward: 5′-GTGCAGTTTTGCCAAGGAGT-3′ and IL-8 reverse: 5′-TTATGAATTCTCAGCCCTCTTCAAAAACTTCTC-3′. The relative proportions of each amplified template were determined utilizing the threshold cycle (CT) value for each performed PCR. The DDCt method was used to compare gene expression data. Each sample was quantified in duplicate. Changes in mRNA expression level were calculated following normalization with the GAPDH calibrator gene (housekeeping gene) and expressed as fold change over untreated samples [24]. Duplicates of negative controls (no template cDNA) were also run with every experimental plate to assess specificity and indicate potential contamination.
With the aim to study the effective anti-inflammatory properties of these new psoralen derivatives, we decided to further characterize the TMA derivatives for their potential activities on the expression of IL-8 gene, known to be involved in the lung inflammatory process in CF. […] More specifically, we were first interested in identifying compounds with low antiproliferative activity, but effective in downmodulating inflammatory gene expression without achieving a full suppression of these genes. We therefore employed IB3-1 cystic fibrosis cells, incubated for 5 h with two concentrations (1 μM and 10 μM) of selected compounds, and then treated with TNF-α ([…]). In the IB3-1 cystic fibrosis cellular model, NF-κB-dependent genes, including the gene encoding for the proinflammatory protein IL-8, generally are activated following infection with P. aeruginosa or treatment with TNF-α or IL-1β [26, 28, 31]. This feature is very important in the pathophysiology of CF, since several clinical complications are caused by exacerbation of this inflammatory response. After 1 day of incubation, cellular RNA was isolated for RT-qPCR analysis. All the TMA analogues found to be active in inhibiting NF-κB/DNA interactions were analyzed for their effects on inhibition of TNF-α-induced accumulation of IL-8 mRNA.

SMILES | IC50 (IB3-1 cells) | Inhibition of NF-κB/DNA complex (MIC) (NF-κB p50) | inhibition at 1 µM (IL-8 mRNA) | inhibition at 10 µM (IL-8 mRNA) | Inhibition of IL-8 expression (range given) (IL-8 mRNA)
COC1Cc2c(ccc3c(C)cc(=O)oc23)O1 (stereo not drawn) [Compound 21] | 678 µM | – | – | – | –
Cc1cc2c(o1)c(C)cc1c(CO)cc(=O)oc12 [Compound 25] | 551 µM | 25 to 50 µM | – | – | –
Cc1cc2c(C)cc3oc(=O)cc(C)c3c2o1 [Compound 33] | > 800 µM | 12.5 to 25 µM | 66% | 67% | 52–83%
Cc1cc(=O)oc2c3c(ccc12)OC(CBr)C3 (stereo not drawn) [Compound 22] | 180 µM | > 100 µM | – | – | –
Cc1cc(=O)oc2c1cc(C)c1[nH]nnc12 [Compound 31] | > 800 µM | 25 µM | – | – | –
Cc1cc2c(o1)c1cc(C)oc1c1c(C)cc(=O)oc21 [Compound 30] | > 800 µM | 12.5 to 25 µM | 10% | – | –
Cc1cc2c(CO)cc(=O)oc2cc1O [Compound 37] | > 800 µM | 12.5 to 25 µM | – | – | –
Cc1oc2c(cc(C)c3occ(C)c32)c(=O)c1C [Compound 27] | > 800 µM | <12.5 (^∗) μM | 16% | – | –
Cc1cc(=O)oc2c1cc(Br)c1occ(C)c12 [Compound 13] | > 800 µM | 12.5 µM | – | – | –
Cc1oc2c(C)cc3c(C)cc(=O)oc3c2c1CO [Compound 23] | 452 µM | – | 3% | 11% | –
Cc1cc2c(C)cc(=O)oc2c2c1OCC=C2 [Compound 35] | 137 µM | 25 to 50 µM | 56% | 37% | –
C=CCc1c(O)c(C)cc2c(CO)cc(=O)oc12 [Compound 38] | 506 µM | 25 µM | 36% | 81% | 52–83%
Cc1cc(=O)oc2c1cc(C)c1scc(C)c12 [Compound 14] | > 800 µM | > 100 µM | – | – | –
COCc1oc2c(C)cc3c(C)cc(=O)oc3c2c1C [Compound 3] | > 800 µM | > 100 µM | – | – | –
Cc1coc2c1c(C)cc1oc(=O)cc(C)c12 [Compound 32] | > 800 µM | <12.5 (^∗) μM | 73% | 52% | –
Cc1oc2c(c(C)cc3oc(=O)cc(C)c32)c1C [Compound 34] | > 800 µM | <12.5 (^∗) μM | 68% | 47% | –
Cc1cc2c(CO)cc(=O)oc2c2cc(CO)oc12 [Compound 24] | 197 µM | > 100 µM | – | – | –
COCc1cc(=O)oc2c1cc(C)c1scc(C)c12 [Compound 15] | > 800 µM | > 100 µM | – | – | –
Cc1cc2c(C(F)(F)F)cc(=O)oc2c2c(C)coc12 [Compound 7] | > 800 µM | > 100 µM | – | – | –
CC(=O)OCc1oc2c(C)cc3c(C)cc(=O)oc3c2c1C [Compound 2] | > 800 µM | > 100 µM | – | – | –
COCc1cc(=O)oc2c1cc(C)c1occ(C)c12 [Compound 9] | > 800 µM | 12.5 µM | – | – | –
Cc1cc2ccc(=O)oc2c2c(C)coc12 [Compound 6] | 454 µM | > 100 µM | – | – | –
Cc1cc(=O)n(C)c2c1cc(C)c1occ(C)c12 [Compound 19] | 131 µM | – | – | – | –
Cc1cc(=O)oc2c1ccc1occ(C)c12 [Compound 11] | 182 µM | > 100 µM | – | – | –
Cc1cc(=O)oc2c3c(ccc12)OC(C)C3 (stereo not drawn) [Compound 20] | 154 µM | – | – | – | –
Cc1cc(=O)[nH]c2c1cc(C)c1occ(C)c12 [Compound 17] | 193 µM | > 100 µM | – | – | –
Cc1cc(=O)oc2c1cc(C)c1occc12 [Compound 4] | > 800 µM | 75 µM | – | – | –
Cc1cc2c(CBr)cc(=O)oc2c2c(C)coc12 [Compound 10] | < 50 µM | < 12.5 µM | – | – | –
Cc1cc(=O)[nH]c2c1cc(C)c1oc(CO)c(C)c12 [Compound 18] | > 800 µM | – | – | – | –
